Tested on: 855422-203-R-J1-PDC complex spheroid viability
Assay: Anticancer human tumor 855422-203-R-J1-PDC patient-derived bladder carcinoma cell line growth inhibition [POLQ]
Details: for IC50: curve of first compound; for viability, T/C: stronger effect = lower value; active = viability on the fitted dose curve at most 10% of control; inactive = the rest
Experimental: Multicellular complex tumor spheroid response to Polymerase (POL) inhibitors (novobiocin, ART-558, RP6685) in combination with a variety of drugs and investigational agents in selected tumor cell lines
The POL inhibitors (novobiocin, ART-558, and RP6685) were evaluated both individually and in combination with standard of care and investigational anticancer small molecules within a complex spheroid model of solid tumors. . Complex spheroids include a stromal component modeled by human endothelial cells (HUVEC) and fibroblasts modeled by human mesenchymal stem cells (MSCs). The concentration ranges selected for each drug and investigational agent were based upon clinically achievable concentrations if the clinical Cmax of the agent was known.
Compounds. The drugs and investigational agents: novobiocin (NSC847541), ART-558 (NSC835418), RP-6685 (NSC848927), peposertib (NSC802822), ceralasertib (NSC780249), elimusertib (NSC800525), camonsertib (NSC841442), AZD-1390 (NSC803789), olaparib (NSC753686), talazoparib (NSC767125), rucaparib (NSC756644), sotorasib (NSC818433), MRTX-1133 (NSC836407), SN-38 (NSC673596), topotecan (NSC609699), epotoside (NSC141540), doxorubicin (NSC123127), gemcitabine (NSC613327), 5-fluorouracil (NSC19893), paclitaxel (NSC125973), vemurafenib (NSC761431), MSA-2 (NSC828583), SN-011 (NSC837082), adavosertib (NSC754352), prexasertib (NSC758257), carboplatin (NSC241240) and oxaliplatin (NSC266046), were obtained from the National Cancer Institute (NCI) Developmental Therapeutics Program Chemical Repository (21). The FDA-approved anticancer drug set is available from the Developmental Therapeutics Program at https://dtp.cancer.gov/organization/dscb/obtaining/. […] The stock solutions were prepared in dimethyl sulfoxide (DMSO, Sigma-Aldrich, St. Louis, MO, cat. D2650), except for the platinum compounds which were prepared in saline (Quality Biological, Gaithersburg, MD, cat. 114-055-101), at 800-fold the tested concentration and stored at -70 degrees C prior to their use. All drugs and investigational agents were tested over a range starting from a high concentration at or near the clinical Cmax and decreasing in half-log increments. If the clinical Cmax for an agent had not been determined, the highest concentration tested was 10 microM, except for SN-38, which was tested at a high concentration of 1 microM.
Cell Culture. All cells were maintained in an incubator at 37 degrees C and 5% CO2 with 95% humidity. The PDC lines were cultured according to standard operating procedures established by the NCI PDMR (https://pdmr.cancer.gov). Table 3 of the manuscript, lists the cell lines along with the number of the three cell types plated to form the mct-spheroids and media for tumor cell growth. After thawing, all PDC lines, except 997537-175-T-J1-PDC and 415267-285-R-J2-PDC, were cultured in Matrigel-coated flasks prepared with a working solution of 1X Ham's F-12 nutrient mix, without supplementation (Thermo Fisher Scientific, cat. 11765054), 100 U/mL penicillin-streptomycin (Thermo Fisher Scientific, cat. 15140122), and 2.5% Matrigel (Corning Inc., Corning, NY, cat. 354248) for the first three passages. The two PDC lines 997537-175-T-J1-PDC and 415267-285-R-J2-PDC were cultured on uncoated flasks. The 857933-349-R-J2-PDC line was cultured in 6C/Colon 1B media containing advanced DMEM/F-12 (Thermo Fisher Scientific, cat. 12634028), 10 mM HEPES (Thermo Fisher Scientific, cat. 15630080), 1X GlutaMAX supplement (Thermo Fisher Scientific, cat. 35050061), 0.1 mg/mL primocin (InvivoGen, San Diego, CA, cat. ant-pm-2), 10% defined fetal bovine serum, heat inactivated (HyClone Laboratories Inc., Logan, UT, cat. SH30070.03HI), 50% L-WRN conditioned media (ATCC, cat. CRL-3276), 1.25 mM N-Acetyl-L-cysteine (Sigma-Aldrich, cat. A9165), 10 mM nicotinamide (Sigma-Aldrich, cat. N0636), 1X B-27 supplement (Thermo Fisher Scientific, cat. 17504044), 1X N-2 supplement (Thermo Fisher Scientific, cat. […]

[1] = second compound 0.0316 µM, first compound 0.0316 µM
[2] = second compound 0.0316 µM, first compound 0.1 µM
[3] = second compound 0.0316 µM, first compound 0.316 µM
[4] = second compound 0.0316 µM, first compound 1 µM
[5] = second compound 0.0316 µM, first compound 3.16 µM
[6] = second compound 0.0316 µM, first compound 10 µM
[7] = second compound 0.1 µM, first compound 0.0316 µM
[8] = second compound 0.1 µM, first compound 0.1 µM
[9] = second compound 0.1 µM, first compound 0.316 µM
[10] = second compound 0.1 µM, first compound 1 µM
[11] = second compound 0.1 µM, first compound 3.16 µM
[12] = second compound 0.1 µM, first compound 10 µM
[13] = second compound 0.316 µM, first compound 0.0316 µM
[14] = second compound 0.316 µM, first compound 0.1 µM
[15] = second compound 0.316 µM, first compound 0.316 µM
[16] = second compound 0.316 µM, first compound 1 µM
[17] = second compound 0.316 µM, first compound 3.16 µM
[18] = second compound 0.316 µM, first compound 10 µM
[19] = second compound 1 µM, first compound 0.0316 µM
[20] = second compound 1 µM, first compound 0.1 µM
[21] = second compound 1 µM, first compound 0.316 µM
[22] = second compound 1 µM, first compound 1 µM
[23] = second compound 1 µM, first compound 3.16 µM
[24] = second compound 1 µM, first compound 10 µM
[25] = second compound 3.16 µM, first compound 0.0316 µM
[26] = second compound 3.16 µM, first compound 0.1 µM
[27] = second compound 3.16 µM, first compound 0.316 µM
[28] = second compound 3.16 µM, first compound 1 µM
[29] = second compound 3.16 µM, first compound 3.16 µM
[30] = second compound 3.16 µM, first compound 10 µM
[31] = second compound 10 µM, first compound 0.0316 µM
[32] = second compound 10 µM, first compound 0.1 µM
[33] = second compound 10 µM, first compound 0.316 µM
[34] = second compound 10 µM, first compound 1 µM
[35] = second compound 10 µM, first compound 3.16 µM
[36] = second compound 10 µM, first compound 10 µM
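Also: spheroids exposed to compounds for seven days before readout.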

Nc1ccn(C2OC(CO)C(O)C2(F)F)c(=O)n1 (centres undefined) + COC1C(OC(N)=O)C(O)C(Oc2ccc3c(O)c(NC(=O)c4ccc(O)c(CC=C(C)C)c4)c(=O)oc3c2C)OC1(C)C
active: viability, T/C [4] 9.46% | viability, T/C [5] 7.57% | viability, T/C [6] 6.26% | viability, T/C [10] 8.44% | viability, T/C [11] 7.41% | viability, T/C [12] 6.76% | viability, T/C [16] 8.38% | viability, T/C [17] 8.35% | viability, T/C [18] 5.06% | viability, T/C [22] 9.87% | viability, T/C [23] 6.93% | viability, T/C [24] 6.4% | viability, T/C [27] 9.1% | viability, T/C [28] 9.44% | viability, T/C [29] 10.2% | viability, T/C [30] 6.39% | viability, T/C [34] 11.4% | viability, T/C [35] 7.42% | viability, T/C [36] 5.66%
0.0681 µM: IC50 (second compound 3.16 µM)
0.0654 µM: IC50 (second compound 0.316 µM)
0.0588 µM: IC50 (second compound 1 µM)
0.0437 µM: IC50 (second compound 0.0316 µM)
0.0482 µM: IC50 (second compound 0.1 µM)
inactive: viability, T/C [1] 57.1% | viability, T/C [2] 31.7% | viability, T/C [3] 11.5% | viability, T/C [7] 60.2% | viability, T/C [8] 32.2% | viability, T/C [9] 10.7% | viability, T/C [13] 78.4% | viability, T/C [14] 33.5% | viability, T/C [15] 11.3% | viability, T/C [19] 72.4% | viability, T/C [20] 31% | viability, T/C [21] 12.2% | viability, T/C [25] 75.4% | viability, T/C [26] 37.3% | viability, T/C [31] 72.8% | viability, T/C [32] 37% | viability, T/C [33] 11.5%
0.0658 µM: IC50 (second compound 10 µM)

O=c1[nH]cc(F)c(=O)[nH]1 + COC1C(OC(N)=O)C(O)C(Oc2ccc3c(O)c(NC(=O)c4ccc(O)c(CC=C(C)C)c4)c(=O)oc3c2C)OC1(C)C
0.489 µM: IC50 (second compound 1 µM)
0.431 µM: IC50 (second compound 10 µM)
0.463 µM: IC50 (second compound 0.0316 µM)
0.37 µM: IC50 (second compound 0.316 µM)
inactive: viability, T/C [1] 101% | viability, T/C [2] 119% | viability, T/C [3] 59.9% | viability, T/C [4] 40.1% | viability, T/C [5] 25.9% | viability, T/C [6] 23.6% | viability, T/C [7] 107% | viability, T/C [8] 107% | viability, T/C [9] 55% | viability, T/C [10] 34.5% | viability, T/C [11] 28% | viability, T/C [12] 22.3% | viability, T/C [13] 107% | viability, T/C [14] 114% | viability, T/C [15] 53.5% | viability, T/C [16] 35.1% | viability, T/C [17] 26.3% | viability, T/C [18] 23.6% | viability, T/C [19] 118% | viability, T/C [20] 100% | viability, T/C [21] 59.2% | viability, T/C [22] 34% | viability, T/C [23] 26.7% | viability, T/C [24] 21.5% | viability, T/C [25] 98.8% | viability, T/C [26] 93.4% | viability, T/C [27] 58.4% | viability, T/C [28] 37.5% | viability, T/C [29] 28.2% | viability, T/C [30] 22% | viability, T/C [31] 117% | viability, T/C [32] 101% | viability, T/C [33] 54.7% | viability, T/C [34] 35.3% | viability, T/C [35] 26.2% | viability, T/C [36] 23.4%
0.518 µM: IC50 (second compound 3.16 µM)
0.403 µM: IC50 (second compound 0.1 µM)
